Results from patent US9975897B2, “Pyrazolopyrimidine derivatives useful as inhibitors of Bruton's tyrosine kinase” (Loxo Oncology, Inc., priority 2014, dated 2018).

Assays:
Recombinant BTK kinase = molecular target: T1, Recombinant BTK kinase (Homo sapiens, UniProt Q06187); test: BTK binding affinity (TR-FRET)
T1 construct: purchased Invitrogen
Experimental: BTK binding affinity of each compound tested was determined using a time-resolved fluorescence resonance energy transfer (TR-FRET) methodology. 2.5 nM Recombinant BTK kinase, varying concentrations of inhibitor, 2 nM LanthaScreen™ Eu anti-His Antibody and 15 nM Kinase Tracer 236 was incubated in 1× LanthaScreen™ Kinase Buffer A for five hours. Recombinant BTK kinase and all LanthaScreen™ components were purchased from Invitrogen. Measurements were performed in a reaction volume of 30 μL using half-area 96-well assay plates. The TR-FRET signal was read on a plate reader with an excitation wavelength of 340 nm and detection wavelengths of 615 and 665 nm. Binding affinity was determined for each compound by measuring TR-FRET signal at various concentrations of compound and plotting the relative fluorescence units against the inhibitor concentration to estimate the IC50 from log [Inhibitor] vs response using the Variable Slope model in Graphpad prism from Graphpad software (SanDiego, Calif.).

Recombinant EGFR = molecular target: T2, Recombinant EGFR (Homo sapiens, UniProt P00533); test: EGFR binding affinity (TR-FRET); settings: 2.5 nM recombinant EGFR, five hours incubation, Table 3 categories
T2 construct: purchased Invitrogen
T2 sequence (P00533 25-1210): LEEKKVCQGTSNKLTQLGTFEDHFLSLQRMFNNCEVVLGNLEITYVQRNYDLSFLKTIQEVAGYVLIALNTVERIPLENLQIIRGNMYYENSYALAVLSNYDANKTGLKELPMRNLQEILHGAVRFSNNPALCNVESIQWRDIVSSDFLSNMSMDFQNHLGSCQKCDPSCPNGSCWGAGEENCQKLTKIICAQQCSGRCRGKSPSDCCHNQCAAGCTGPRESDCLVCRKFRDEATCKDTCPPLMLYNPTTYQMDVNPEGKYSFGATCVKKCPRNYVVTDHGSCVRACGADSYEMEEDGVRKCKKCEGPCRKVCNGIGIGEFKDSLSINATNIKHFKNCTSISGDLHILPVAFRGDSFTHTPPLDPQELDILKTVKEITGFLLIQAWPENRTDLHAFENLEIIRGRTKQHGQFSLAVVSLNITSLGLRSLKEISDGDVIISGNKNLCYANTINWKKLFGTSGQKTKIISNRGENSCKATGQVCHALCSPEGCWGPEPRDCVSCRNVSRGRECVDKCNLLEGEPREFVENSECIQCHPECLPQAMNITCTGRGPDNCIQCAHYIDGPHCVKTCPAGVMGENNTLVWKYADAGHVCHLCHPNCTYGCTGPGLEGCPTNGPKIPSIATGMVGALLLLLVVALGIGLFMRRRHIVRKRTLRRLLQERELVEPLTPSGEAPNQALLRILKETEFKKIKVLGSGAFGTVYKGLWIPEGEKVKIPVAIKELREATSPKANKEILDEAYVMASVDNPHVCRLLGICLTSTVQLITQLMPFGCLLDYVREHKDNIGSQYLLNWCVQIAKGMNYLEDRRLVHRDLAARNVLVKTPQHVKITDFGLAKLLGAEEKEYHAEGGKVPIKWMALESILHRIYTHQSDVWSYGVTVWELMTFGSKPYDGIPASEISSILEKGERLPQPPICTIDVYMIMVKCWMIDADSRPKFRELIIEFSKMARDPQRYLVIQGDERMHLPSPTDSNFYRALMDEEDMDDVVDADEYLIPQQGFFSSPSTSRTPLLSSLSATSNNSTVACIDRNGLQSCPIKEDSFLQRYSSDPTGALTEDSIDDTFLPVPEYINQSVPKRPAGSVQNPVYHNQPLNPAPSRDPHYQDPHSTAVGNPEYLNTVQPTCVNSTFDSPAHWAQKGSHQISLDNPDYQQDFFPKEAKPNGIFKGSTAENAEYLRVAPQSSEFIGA
Experimental: EGFR binding affinity was determined using a time-resolved fluorescence resonance energy transfer (TR-FRET) methodology. 2.5 nM Recombinant EGFR, varying concentrations of inhibitor, 2 nM LanthaScreen™ Eu anti-GST Antibody and 3 nM Kinase Tracer 199 was incubated in 1× LanthaScreen™ Kinase Buffer A for five hours. Recombinant EGFR and all LanthaScreen™ components were purchased from Invitrogen. Measurements were performed in a reaction volume of 30 μL using half-area 96-well assay plates. The TR-FRET signal was read on a plate reader with an excitation wavelength of 340 nm and detection wavelengths of 615 and 665 nm. Binding affinity was determined for each compound by measuring TR-FRET signal at various concentrations of compound and plotting the relative fluorescence units against the inhibitor concentration to estimate the IC50 from log [Inhibitor] vs response using the Variable Slope model in Graphpad prism from Graphpad software (SanDiego, Calif.).

TMD8 human DLBCL cells = test: TMD8 growth assay; format: cell-based; settings: 72 hours, Resazurin, Table 3 categories
Experimental: Compounds were assayed for effects on the growth of TMD8 human DLBCL cells that are dependent on NFκB signalling. TMD8 cells were grown in suspension in T225 flasks, centrifuged and re-suspended in 2.5% FBS containing media. Cells were then plated at 1.0×10^4 cells per well in 96-well plates in varying concentrations of compound and incubated for 72 hours at 37° C. An additional plate of cells to be used as the Day 0 read was seeded without compound addition, Resazurin was added to each well, incubated for 5 h and the fluorescence measured at 590 nm. After 72 h of compound treatment, Resazurin was added to each well of the compound treated plates, incubated for 5 hours and the fluorescence measured at 590 nm. The IC50 was then calculated but subtracting the average Day 0 value from each well value from the treated plates, each treatment was then calculated as a percentage of the DMSO control and the percentages plotted against the inhibitor concentration to estimate the IC50 from log [Inhibitor] vs response using the Variable Slope model in Graphpad prism from Graphpad software (San Diego, Calif.).

[1] = rat; cited from earlier work
[2] = 2.5 nM recombinant BTK, five hours incubation, Table 3 categories

T1 sequence (Q06187 whole entry): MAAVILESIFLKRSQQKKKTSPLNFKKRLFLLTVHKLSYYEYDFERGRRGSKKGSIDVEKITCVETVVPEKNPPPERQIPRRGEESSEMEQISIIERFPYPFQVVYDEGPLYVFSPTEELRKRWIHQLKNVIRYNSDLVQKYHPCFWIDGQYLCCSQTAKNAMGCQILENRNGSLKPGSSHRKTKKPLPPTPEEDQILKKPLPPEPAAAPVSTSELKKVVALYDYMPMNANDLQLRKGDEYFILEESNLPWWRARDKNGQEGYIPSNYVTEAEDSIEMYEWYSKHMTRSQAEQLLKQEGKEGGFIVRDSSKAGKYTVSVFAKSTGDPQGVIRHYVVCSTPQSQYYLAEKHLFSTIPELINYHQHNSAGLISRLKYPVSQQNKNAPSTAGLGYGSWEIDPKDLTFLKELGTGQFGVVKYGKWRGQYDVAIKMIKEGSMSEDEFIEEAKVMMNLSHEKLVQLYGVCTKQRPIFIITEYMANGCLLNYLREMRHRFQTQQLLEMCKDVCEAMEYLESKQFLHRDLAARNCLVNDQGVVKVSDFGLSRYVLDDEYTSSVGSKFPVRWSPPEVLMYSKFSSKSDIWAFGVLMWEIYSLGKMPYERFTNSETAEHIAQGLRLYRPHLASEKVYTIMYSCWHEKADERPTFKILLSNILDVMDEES

SMILES | IC50 (Recombinant BTK kinase; [2]) [nM] | IC50 (Recombinant BTK kinase; Table 4 numeric values) [nM] | IC50 (Recombinant EGFR) [nM] | IC50 (TMD8 human DLBCL cells) [nM] | bioavailability [1] | estimated fraction absorbed [1]
C=CC(=O)N1CCC[C@@H](n2nc(-c3ccc(CNC(=O)c4ccc(C)cc4OC)cc3)c3c(N)ncnc32)C1 [ID No. 15, N-[[4-[4-amino-1-[(3R)-1-prop-2-enoyl-3-piperidyl]pyrazolo[3,4-d]pyrimidin-3-yl]phenyl]methyl]-2-methoxy-4-methyl-benzamide] | 0.5 to 1 | 0.7 | 25 to 80 | < 5 | – | –
C=CC(=O)N1CCC[C@@H](n2nc(-c3ccc(CNC(=O)c4ccc(C(F)(F)F)cc4F)cc3)c3c(N)ncnc32)C1 [ID No. 36, N-[[4-[4-amino-1-[(3R)-1-prop-2-enoyl-3-piperidyl]pyrazolo[3,4-d]pyrimidin-3-yl]phenyl]methyl]-2-fluoro-4-(trifluoromethyl)benzamide] | 1 to 10 | – | < 25 | 25 to 300 | – | –
C=CC(=O)N1CCC[C@@H](n2nc(-c3ccc(Oc4ccccc4)cc3)c3c(N)ncnc32)C1 [Ibrutinib] | – | – | – | – | poor | low
